# Assay results taken from PubChem BioAssay AID1259408 (Genetic Toxicology Data Bank (GENE-TOX), 2018).
# Calls of active or inactive are those of the source. How the calls were made is not given here.
# Test system: GENE-TOX genotoxicity assays, various organisms and cells
# Assay: GENE-TOX mutagenicity studies
# Details: for call: Assay Type: In vivo carcinogenicity studies
# Text: GENE-TOX provides genetic toxicology (mutagenicity) test data from expert peer review of open scientific literature for more than 3,000 chemicals from the United States Environmental Protection Agency (EPA). GENE-TOX was established to select assay systems for evaluation, review data in the scientific literature, and recommend proper testing protocols and evaluation procedures for these systems.
# GENE-TOX covers the years 1991 - 1998. It is no longer updated.
# This is an archive assay for GENE-TOX mutagenicity studies.
# [1] = Species/Cell Type: Bacillus subtilis (H17 vs M45), Assay Type: Rec-assay, spot test, DNA effects (bacterial DNA repair), Assay Code: REW+, Evaluation Type: Evaluation A (Pre-1980)
# [2] = Species/Cell Type: Human lymphocytes, Assay Type: Sister-chromatid exchange (SCE) in vitro, Assay Code: SCL+D, Dose Response: With dose response, Evaluation Type: Evaluation B (Post-1980)
# [3] = Species/Cell Type: Human, Assay Type: Sister-chromatid exchange (SCE) in vitro, Assay Code: SC1+D, Dose Response: With dose response, Evaluation Type: Evaluation B (Post-1980)
# [4] = Species/Cell Type: Human diploid fibroblasts, Assay Type: Unscheduled DNA synthesis (UDS) in vitro, DNA effects, Assay Code: UDH-, Evaluation Type: Evaluation A (Pre-1980)
# [5] = Species/Cell Type: Human, Assay Type: Sister-chromatid exchange (SCE) in vitro, Assay Code: SC1T, Evaluation Type: Evaluation B (Post-1980)
# [6] = Species/Cell Type: Nonhuman, Assay Type: Sister-chromatid exchange (SCE) in vitro, Assay Code: SC2+D, Dose Response: With dose response, Evaluation Type: Evaluation B (Post-1980)
# [7] = Species/Cell Type: Salmonella typhimurium (one or more of the five standard strains: TA98, TA100, TA1535, TA1537, and TA1538), Assay Type: Histidine reverse gene mutation, Ames assay, Assay Code: SAL+, Evaluation Type: Evaluation A (Pre-1980)
# [8] = Species/Cell Type: Escherichia coli polA (W3119 vs P3478), Assay Type: Rec-assay, DNA effects (bacterial DNA repair), Assay Code: RE1T, Evaluation Type: Evaluation A (Pre-1980)
# [9] = Species/Cell Type: Nonhuman, Assay Type: Sister-chromatid exchange (SCE) in vivo, Assay Code: SC3+D, Dose Response: With dose response, Evaluation Type: Evaluation B (Post-1980)
compound,measurement,setting,value
O=[Se]=O,mutagenic call,[1],active; positive
same,mutagenic call,[2],active; positive
same,mutagenic call,[3],active; positive
same,mutagenic call,"Species/Cell Type: Nonhuman, Assay Type: Sister-chromatid exchange (SCE) in vitro, Assay Code: SC2-, Evaluation Type: Evaluation B (Post-1980)",inactive; negative
OCn1cnc2ccccc21,mutagenic call,"Species/Cell Type: Arabidopsis species, Assay Type: Gene mutation, Assay Code: ARM-, Evaluation Type: Evaluation A (Pre-1980)",inactive; negative
O=C1CN(/N=C/c2ccc([N+](=O)[O-])o2)C(=O)N1,mutagenic call,"Species/Cell Type: Escherichia coli WP2, Assay Type: Tryptophan reverse gene mutation, Assay Code: WP2+, Evaluation Type: Evaluation A (Pre-1980)",active; positive
same,mutagenic call,"Species/Cell Type: Escherichia coli WP2 UVRA, Assay Type: Tryptophan reverse gene mutation, Assay Code: WPU+D, Dose Response: With dose response, Evaluation Type: Evaluation A (Pre-1980)",active; positive
same,mutagenic call,[4],inactive; negative
same,mutagenic call,[5],no conclusion
same,mutagenic call,"Species/Cell Type: Human, Sex: Male, Assay Type: Sperm morphology, Assay Code: SPHT, Evaluation Type: Evaluation A (Pre-1980)",no conclusion
same,mutagenic call,"Species/Cell Type: Mammalian polychromatic erythrocytes, Assay Type: Micronucleus test, chromosome aberrations, Assay Code: MNT+, Evaluation Type: Evaluation A (Pre-1980)",active; positive
same,mutagenic call,"Species/Cell Type: Mouse, Sex: Male, Assay Type: Sperm morphology, Assay Code: SPI-, Evaluation Type: Evaluation A (Pre-1980)",inactive; negative
same,call,"Species/Cell Type: Nonhuman, Assay Code: CCGT, Evaluation Type: Evaluation A (Pre-1980)",no conclusion
same,mutagenic call,[6],active; positive
same,mutagenic call,"Species/Cell Type: Nonhuman, Assay Type: Sister-chromatid exchange (SCE) in vivo, Assay Code: SC3+, Evaluation Type: Evaluation B (Post-1980)",active; positive
same,mutagenic call,"Species/Cell Type: Rodents, Sex: Male, Assay Type: Dominant lethal test, Assay Code: DLT-, Evaluation Type: Evaluation A (Pre-1980)",inactive; negative
same,mutagenic call,"Species/Cell Type: Saccharomyces cerevisiae, Assay Type: Forward and reverse gene mutation, mitotic recombination and gene conversion, host-mediated assay, Assay Code: HME+, Evaluation Type: Evaluation A (Pre-1980)",active; positive
same,mutagenic call,"Species/Cell Type: Saccharomyces cerevisiae, Assay Type: Mitotic recombination or gene conversion, Assay Code: YEC+*, Activation: With metabolic activation, Evaluation Type: Evaluation A (Pre-1980)",active; positive
same,mutagenic call,[7],active; positive
same,mutagenic call,"Species/Cell Type: Salmonella typhimurium and Saccharomyces cerevisiae, Assay Type: Forward and reverse gene mutation, mitotic recombination and gene conversion, DNA effects, body fluid assay, Assay Code: BFG+, Evaluation Type: Evaluation A (Pre-1980)",active; positive
Nc1ccc2nc3ccccn3c2n1,mutagenic call,[2],active; positive
same,mutagenic call,[3],active; positive
CC(=O)Nc1ccc2c(ccc3ccccc32)c1,mutagenic call,[4],inactive; negative
same,call,"Species/Cell Type: Nonhuman, Assay Code: CCG+L, Evaluation Type: Evaluation A (Pre-1980)",active; positive
CC(O)c1ccccc1 (stereo not given),mutagenic call,[8],no conclusion
Cc1cccc(-c2ccc(N)cc2C)c1,mutagenic call,"Species/Cell Type: Syrian hamster embryo (SHE) cells, Assay Type: Cell transformation, clonal assay, Assay Code: CTC+, Evaluation Type: Evaluation A (Pre-1980)",active; positive
COC(=O)c1ccc(C(=O)OC)cc1,call,"Species/Cell Type: Nonhuman, Assay Code: CCG-, Evaluation Type: Evaluation A (Pre-1980)",inactive; negative
same,mutagenic call,"Species/Cell Type: Syrian hamster embryo (SA7/SHE) cells, Assay Type: Cell transformation, viral enhanced, Assay Code: CT7-, Evaluation Type: Evaluation A (Pre-1980)",inactive; negative
OC1C=Cc2c(c3cc4ccccc4cc3c3ccccc23)[C@H]1O (stereo not given in full),mutagenic call,[6],active; positive
CC(=O)O/C=C/Cc1cccc2c1OCO2,mutagenic call,"Species/Cell Type: Salmonella typhimurium (one or more of the five standard strains: TA98, TA100, TA1535, TA1537, and TA1538), Assay Type: Histidine reverse gene mutation, Ames assay, Assay Code: SALT, Evaluation Type: Evaluation A (Pre-1980)",no conclusion
O=[N+]([O-])c1cccc2cn[nH]c12,mutagenic call,[7],active; positive
[Cl][Pt-2]([Cl])([Cl])([Cl])([Cl])[Cl],mutagenic call,[1],active; positive
CCCOP(=S)(OCCC)OP(=S)(OCCC)OCCC,mutagenic call,"Species/Cell Type: Bacillus subtilis (H17 vs M45), Assay Type: Rec-assay, spot test, DNA effects (bacterial DNA repair), Assay Code: REWT, Evaluation Type: Evaluation A (Pre-1980)",no conclusion
same,mutagenic call,"Species/Cell Type: Drosophila melanogaster, Assay Type: Sex-linked recessive lethal gene mutation, Assay Code: SRL-, Evaluation Type: Evaluation A (Pre-1980)",inactive; negative
same,mutagenic call,"Species/Cell Type: Escherichia coli WP2 UVRA, Assay Type: Tryptophan reverse gene mutation, Assay Code: WPU-*, Activation: With metabolic activation, Evaluation Type: Evaluation A (Pre-1980)",inactive; negative
same,mutagenic call,[8],no conclusion
same,mutagenic call,[4],inactive; negative
same,mutagenic call,"Species/Cell Type: Saccharomyces cerevisiae, Assay Type: Mitotic recombination or gene conversion, Assay Code: YEH-, Evaluation Type: Evaluation A (Pre-1980)",inactive; negative
same,mutagenic call,"Species/Cell Type: Salmonella typhimurium (one or more of the five standard strains: TA98, TA100, TA1535, TA1537, and TA1538), Assay Type: Histidine reverse gene mutation, Ames assay, Assay Code: SAL-, Evaluation Type: Evaluation A (Pre-1980)",inactive; negative
C=CCc1ccccc1O,mutagenic call,"Species/Cell Type: Human lymphocytes, Assay Type: Sister-chromatid exchange (SCE) in vitro, Assay Code: SCLT, Evaluation Type: Evaluation B (Post-1980)",no conclusion
same,mutagenic call,[5],no conclusion
O=C(OC[C@@H]1O[C@H](OC(=O)c2cc(O)c(O)c(OC(=O)c3cc(O)c(O)c(O)c3)c2)[C@@H](OC(=O)c2cc(O)c(O)c(OC(=O)c3cc(O)c(O)c(O)c3)c2)[C@H](OC(=O)c2cc(O)c(O)c(OC(=O)c3cc(O)c(O)c(O)c3)c2)[C@H]1OC(=O)c1cc(O)c(O)c(OC(=O)c2cc(O)c(O)c(O)c2)c1)c1cc(O)c(O)c(OC(=O)c2cc(O)c(O)c(O)c2)c1,mutagenic call,[8],no conclusion
same,mutagenic call,[9],active; positive
O=C(COc1ccc(Br)cc1CN1CCOCC1)N/N=C/c1ccccc1O,mutagenic call,"Species/Cell Type: Saccharomyces cerevisiae, Assay Type: Reverse gene mutation, Assay Code: YERT, Evaluation Type: Evaluation A (Pre-1980)",no conclusion
COc1cccc2c1C(=O)c1c(O)c3c(c(O)c1C2=O)C[C@@](O)(C(C)=O)C[C@@H]3O[C@H]1C[C@H](N)[C@H](O)[C@H](C)O1,mutagenic call,"Species/Cell Type: Chinese hamster lung (V79) cells, Assay Type: Forward gene mutation at the HPRT or ouabain locus, Assay Code: V79+, Evaluation Type: Evaluation A (Pre-1980)",active; positive
same,mutagenic call,"Species/Cell Type: Chinese hamster ovary (CHO) cells, Assay Type: Forward gene mutation at the HPRT locus, Assay Code: CHO+, Evaluation Type: Evaluation B (Post-1980)",active; positive
same,mutagenic call,"Species/Cell Type: Glycine max (soybean), Assay Type: Gene mutation, Assay Code: GLMT, Evaluation Type: Evaluation A (Pre-1980)",no conclusion
same,mutagenic call,"Species/Cell Type: Human cell culture, Assay Type: Chromosome aberrations in vitro, Assay Code: CYZ+D, Dose Response: With dose response, Evaluation Type: Evaluation A (Pre-1980)",active; positive
same,mutagenic call,"Species/Cell Type: Human lymphocytes or leukocytes, Assay Type: Chromosome aberrations in vitro, Assay Code: CY7+, Evaluation Type: Evaluation A (Pre-1980)",active; positive
same,mutagenic call,[2],active; positive
same,mutagenic call,[3],active; positive
same,mutagenic call,"Species/Cell Type: Nonhuman bone marrow, Assay Type: Chromosome aberrations, in vivo, Assay Code: CY#+, Evaluation Type: Evaluation A (Pre-1980)",active; positive
same,mutagenic call,"Species/Cell Type: Nonhuman lymphocytes or leukocytes, Assay Type: Chromosome aberrations in vivo, Assay Code: CY%+, Evaluation Type: Evaluation A (Pre-1980)",active; positive
same,call,"Species/Cell Type: Nonhuman, Assay Code: CCG+, Evaluation Type: Evaluation A (Pre-1980)",active; positive
same,mutagenic call,"Species/Cell Type: Nonhuman, Assay Type: Sister-chromatid exchange (SCE) in vitro, Assay Code: SC2+, Evaluation Type: Evaluation B (Post-1980)",active; positive
same,mutagenic call,[9],active; positive
same,mutagenic call,[7],active; positive
same,mutagenic call,"Species/Cell Type: Vicia faba, Assay Type: Chromosome aberrations, Assay Code: VIC+D, Dose Response: With dose response, Evaluation Type: Evaluation A (Pre-1980)",active; positive
CO[C@@]12[C@H](CO)C3=C(C(=O)C(C)=C(N)C3=O)N1C[C@@H]1N[C@@H]12,mutagenic call,[2],active; positive
same,mutagenic call,[3],active; positive
same,mutagenic call,[6],active; positive
CCOC(=O)C1C(C=C(C)C)C1(C)C (stereo not given),mutagenic call,[4],inactive; negative
same,mutagenic call,"Species/Cell Type: Saccharomyces cerevisiae, Assay Type: Mitotic recombination or gene conversion, Assay Code: YEH+, Evaluation Type: Evaluation A (Pre-1980)",active; positive
CCCCCCCC(=O)OCC(COC(=O)CCCCCCC)OC(=O)CCCCCCC,mutagenic call,"Species/Cell Type: Mouse, Sex: Female, Assay Type: Spot test, gene mutation, Assay Code: MSTT, Evaluation Type: Evaluation A (Pre-1980)",no conclusion
CCNCC,mutagenic call,"Species/Cell Type: Saccharomyces cerevisiae, Assay Type: Forward gene mutation, Assay Code: YEF-*, Activation: With metabolic activation, Evaluation Type: Evaluation A (Pre-1980)",inactive; negative
